Test results: patent US4110438A, “Method of treating depression” (American Home Products Corporation, priority 1977, dated 1978)

Tests used:
[1] = system: patients suffering from depression caused by stress or emotional exhaustion; assay: clinical investigation of LH-RH in patients suffering from depression; assay type: in vivo, human
Description: Twenty-one patients, suffering from depression caused by stress or emotional exhaustion, were selected for the investigation. Fifteen were female adults, five were male adults and one patient was a young person […]. The latter patient suffered from existential depression and cryptorchidism. Each patient received 300 mcg of LH-RH in a single or divided dose once a month. In this instance the LH-RH was in the form of its hydrochloride acid addition salt and was prepared according to the syntheses reported by Immer et al., noted above. […] Relief from depression usually was observed within 12 hours and in almost all cases within 24 hours. The patients became more cheerful and aware of feeling much better. […] This latter patient sufferred from depression and sexual frigidity; however, in this instance there was no anhedonia regression and some erotic pulsations did occur. […] The greatest hormonal responses coincided with the most evident clinical improvement. In a control study, five patients with established depression were treated with an injection of only the vehicle for the above noted LH-RH dosage.

[2] = system: patients with endogenous depression; conditions: given in randomized order on days 1, 3 and 5; Lancet 1974; cited from earlier work

SMILES	sleep, appetite and disposition for work ([1]; 21 patients, 300 mcg once a month)	time to relief from depression (almost all cases) ([1]; 21 patients, 300 mcg once a month, in almost all cases)	libido response ([1]; 21 patients, 300 mcg once a month, most noticeable in female patients)	time to relief from depression (usually) ([1]; 21 patients, 300 mcg once a month, usually observed)	onset of response after administration ([1]; 21 patients, 300 mcg single or divided dose once a month, hydrochloride salt)	time until symptoms of depression disappear ([1]; 100-800 mcg LH-RH or acid addition salt, moderately to severely depressed patient, usually)	results in stress induced (reactive) depression ([1]; dosages 100-800 mcg, patients suffering from stress induced depression)	hormonal responses: serum levels of luteinizing hormone, follicular stimulating hormone, prolactin and thyrotrophin releasing hormone ([1]; monitored during treatment, greatest responses coincided with most evident clinical improvement)	patients not responding ([1]; of 21 patients, 300 mcg once a month)	gonadotropin response in younger patients (growth of penis, development of scrota) ([1]; younger patients, measured at 30 and 60 days after beginning of treatment)	clinical importance in the treatment of endogenous depression [2]
CC(C)C[C@H](NC(=O)CNC(=O)[C@H](Cc1ccc(O)cc1)NC(=O)[C@H](CO)NC(=O)[C@H](Cc1c[nH]c2ccccc12)NC(=O)[C@H](Cc1c[nH]cn1)NC(=O)[C@@H]1CCC(=O)N1)C(=O)N[C@@H](CCCNC(=N)N)C(=O)N1CCC[C@H]1C(=O)NCC(N)=O [LH-RH, (pyro)-Glu-His-Trp-Ser-Tyr-Gly-Leu-Arg-Pro-Gly-NH2]	Sleep and appetite were regularized as well as disposition for work	≤ 24 h	An improvement in libido response occurred frequently	≤ 12 h	response was immediate	≤ 24 h	Especially effective and favorable results	increases in the serum levels	Only one patient did not respond	there was a gonadotropin response	of no clinical importance
NC(=O)[C@@H]1CCCN1C(=O)[C@H](Cc1cnc[nH]1)NC(=O)[C@@H]1CCC(=O)N1 [thyrotropin releasing hormone]											of no clinical importance
